Drawing on patent US9474790B2, “Stable, protracted GLP-1/glucagon receptor co-agonists for medical use” (Novo Nordisk A/S, priority 2013, dated 2016), this text covers IC50 for 2 compounds.

This test addresses T1, human GLP-1 receptor (Homo sapiens, UniProt P43220).
T1 construct: expressed in transfected cells; host or cells: BHK cells (parent BHKTS13), clone FCW467-12A/KZ10-1, with CRE luciferase
As to the kind of experiment: GLP-1 receptor binding, 125I-GLP-1 displacement SPA on isolated membranes. As to conditions: displacement of 125I-GLP-1 from membranes; read-out: IC50 GLP-1R. A digest of the protocol: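 Test derivatives, serially diluted, competed with 125I-GLP-1(7-36)NH2 for the human GLP-1 receptor on BHK membranes, read by WGA-bead scintillation proximity after 2 h at 30°C, pH 7.4 HEPES/EGTA/MgCl2 buffer. Final serum albumin was either ≤0.001% or 2.0%; IC50 from non-linear fit.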
On the technique in general: Loss of bound radioactivity is the signal in a displacement assay; it reports binding, not function.

pIC50: −log10 of the molar value. Numbered stars: 1 amine (or outer) side, 2 acyl side, 3 side chain; on linkers, the order of the positions; unused ones are H or OH. Square brackets hold non-standard residues; d marks the D form. Side chains are listed from the residue outwards. Peptide text beside a SMILES is read from it. * marks the point of attachment. C18 diacid = O=C(O)CCCCCCCCCCCCCCCCC(=O)*; γGlu = O=C(O)[C@H](CCC(=O)[*:2])N[*:1]; Ac4c = NC1(C(=O)O)CCC1; Aib = CC(C)(N)C(=O)O

T1 sequence (P43220 24-463): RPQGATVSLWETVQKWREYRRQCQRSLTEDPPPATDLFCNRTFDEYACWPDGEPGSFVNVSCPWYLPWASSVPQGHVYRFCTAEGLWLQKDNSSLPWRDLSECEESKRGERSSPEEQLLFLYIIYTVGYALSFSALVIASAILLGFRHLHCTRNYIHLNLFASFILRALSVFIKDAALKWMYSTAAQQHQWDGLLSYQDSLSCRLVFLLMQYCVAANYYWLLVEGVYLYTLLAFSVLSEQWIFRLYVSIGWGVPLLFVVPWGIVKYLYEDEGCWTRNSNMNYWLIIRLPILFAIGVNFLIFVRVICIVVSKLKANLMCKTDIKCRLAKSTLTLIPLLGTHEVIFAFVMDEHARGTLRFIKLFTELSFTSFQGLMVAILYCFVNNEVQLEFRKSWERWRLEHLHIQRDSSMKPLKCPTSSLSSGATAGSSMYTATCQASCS

As to `CC(C)C[C@H](NC(=O)[C@H](Cc1ccc(O)cc1)NC(=O)[C@H](CCCCN)NC(=O)[C@H](CO)NC(=O)[C@H](CC(C)C)NC(=O)[C@H](CC(=O)O)NC(=O)[C@H](CO)NC(=O)[C@@H](NC(=O)[C@H](Cc1ccccc1)NC(=O)[C@@H](NC(=O)CNC(=O)[C@H](CCC(N)=O)NC(=O)C1(NC(=O)[C@@H](N)Cc2c[nH]cn2)CCC1)[C@@H](C)O)[C@@H](C)O)C(=O)N[C@@H](CCC(=O)O)C(=O)N[C@@H](CO)C(=O)N[C@@H](CCCCN)C(=O)N[C@@H](CCCNC(=N)N)C(=O)N[C@@H](C)C(=O)N[C@@H](CCCNC(=N)N)C(=O)N[C@@H](CCC(=O)O)C(=O)N[C@@H](Cc1ccccc1)C(=O)N[C@H](C(=O)N[C@@H](CCC(N)=O)C(=O)N[C@@H](Cc1c[nH]c2ccccc12)C(=O)N[C@@H](CC(C)C)C(=O)N[C@@H](CC(C)C)C(=O)N[C@@H](CCCCNC(=O)CC[C@H](NC(=O)CC[C@H](NC(=O)[C@H](CO)NC(=O)[C@H](CCC(=O)O)NC(=O)[C@H](CO)NC(=O)CC[C@H](NC(=O)CC[C@H](NC(=O)CCCCCCCCCCCCCCCCC(=O)O)C(=O)O)C(=O)O)C(=O)O)C(=O)O)C(=O)N[C@H](C(N)=O)[C@@H](C)O)C(C)C` [Example 68, N^ε28-[(4S)-4-carboxy-4-[[(4S)-4-carboxy-4-[[(2S)-2-[[(2S)-4-carboxy-2-[[(2S)-2-[[(4S)-4-carboxy-4-[[(4S)-4-carboxy-4-(17-carboxyheptadecanoylamino)butanoyl]amino]butanoyl]amino]-3-hydroxypropanoyl]amino]butanoyl]amino]-3-hydroxypropanoyl]amino]butanoyl]amino]butanoyl]-[Acb2,Leu10,Glu15,Lys17,Arg20,Glu21,Leu27,Lys28]-Glucagon amide] (H-H[Ac4c]QGTFTSDLSKYLESKRAREFVQWLLK([γGlu-γGlu-Ser-Glu-Ser-γGlu-γGlu-C18 diacid])T-NH2; N-terminus assumed), the pIC50 is 9.52.
In the case of `CC(C)C[C@H](NC(=O)[C@H](Cc1ccc(O)cc1)NC(=O)[C@H](CCCCN)NC(=O)[C@H](CO)NC(=O)[C@H](CC(C)C)NC(=O)[C@H](CC(=O)O)NC(=O)[C@H](CO)NC(=O)[C@@H](NC(=O)[C@H](Cc1ccccc1)NC(=O)[C@@H](NC(=O)CNC(=O)[C@H](CCC(N)=O)NC(=O)C(C)(C)NC(=O)[C@@H](N)Cc1c[nH]cn1)[C@@H](C)O)[C@@H](C)O)C(=O)N[C@@H](CCC(=O)O)C(=O)N[C@@H](CO)C(=O)N[C@@H](CCCCN)C(=O)N[C@@H](CCCNC(=N)N)C(=O)N[C@@H](C)C(=O)N[C@@H](CCCNC(=N)N)C(=O)N[C@@H](CO)C(=O)N[C@@H](Cc1ccccc1)C(=O)N[C@H](C(=O)N[C@@H](CCC(N)=O)C(=O)N[C@@H](Cc1c[nH]c2ccccc12)C(=O)N[C@@H](CC(C)C)C(=O)N[C@@H](CC(C)C)C(=O)N[C@@H](CCCCNC(=O)CC[C@H](NC(=O)CC[C@H](NC(=O)[C@H](CO)NC(=O)[C@H](CCC(=O)O)NC(=O)[C@H](CO)NC(=O)CC[C@H](NC(=O)CC[C@H](NC(=O)CCCCCCCCCCCCCCCCC(=O)O)C(=O)O)C(=O)O)C(=O)O)C(=O)O)C(=O)N[C@H](C(N)=O)[C@@H](C)O)C(C)C` [Example 69, N^ε28-[(4S)-4-carboxy-4-[[(4S)-4-carboxy-4-[[(2S)-2-[[(2S)-4-carboxy-2-[[(2S)-2-[[(4S)-4-carboxy-4-[[(4S)-4-carboxy-4-(17-carboxyheptadecanoylamino)butanoyl]amino]butanoyl]amino]-3-hydroxypropanoyl]amino]butanoyl]amino]-3-hydroxypropanoyl]amino]butanoyl]amino]butanoyl]-[Aib2,Leu10,Glu15,Lys17,Arg20,Ser21,Leu27,Lys28]-Glucagon amide] (H-H[Aib]QGTFTSDLSKYLESKRARSFVQWLLK([γGlu-γGlu-Ser-Glu-Ser-γGlu-γGlu-C18 diacid])T-NH2; N-terminus assumed), the pIC50 was 9.70.

Usually pIC50 stands for the IC50 on a negative log10 scale, so that one unit is a factor of ten.
